From patent publication US6521651B1, “Pharmaceutical composition” (Abbott Laboratories, priority 1996, dated 2003)

Experiment: Oral bioavailability studies in dogs
Type: in vivo
Conditions: both sexes, beagle, dog, plasma; unformulated solid in a capsule dosage form, 5 mg/kg oral dose in dogs
Experimental: These capsules were administered to fasted dogs with 10 ml of water.
These capsules were administered to non-fasted dogs with ten milliliter of water.
These capsules were administered to fed dogs with ten milliliter of water.
Dogs (beagle dogs, mixed sexes, weighing 7-14 kg) were fasted overnight prior to dosing, but were permitted water ad libitum. Each dog received a 100 μg/kg subcutaneous dose of histamine approximately 30 minutes prior to dosing. Each dog received a single solid dosage form corresponding to a 5 mg/kg dose of the drug. The dose was followed by approximately 10 milliliters of water. Blood samples were obtained from each animal prior to dosing and 0.25, 0.5, 1.0, 1.5, 2, 3, 4, 6, 8, 10 and 12 hours after drug administration. […] Concentrations of parent drug were determined by reverse phase HPLC with low wavelength UV detection following liquid-liquid extraction of the plasma samples. The parent drug area under the curve was calculated by the trapezoidal method over the time course of the study. The absolute bioavailability of each test composition was calculated by comparing the area under the curve after oral dosing to that obtained from a single intravenous dose. Each capsule or capsule composition was evaluated in a group containing at least six dogs; the values reported are averages for each group of dogs.

CC(C)c1nc(CN(C)C(=O)N[C@H](C(=O)N[C@@H](Cc2ccccc2)C[C@H](O)[C@H](Cc2ccccc2)NC(=O)OCc2cncs2)C(C)C)cs1 [compound III, (2S,3S,5S)-5-(N-(N-((N-Methyl-N-((2-isopropyl-4-thiazolyl)methyl)-amino)carbonyl)valinyl)amino)-2-(N-((5-thiazolyl)methoxycarbonyl)amino)-1,6-diphenyl-3-hydroxyhexane]
bioavailability: < 2%
